Reference: ChEMBL document CHEMBL4308841, “Synthesis, in vitro antiproliferative activity, and kinase inhibitory effects of pyrazole-containing diarylureas and diarylamides” (Eur J Med Chem, 2018)

What was measured:
786-0 = assay: Growth inhibition of human 786-0 cells assessed as cell growth at 100 uM incubated for 48 hrs by sulforhodamine B assay relative to control; type: functional; conditions: 786-0, 48 h, read-out: Activity
HOP-62 [1] = assay: Growth inhibition of human HOP62 cells assessed as cell growth at 1 uM incubated for 48 hrs by sulforhodamine B assay relative to control; type: functional; conditions: HOP-62, 48 h, read-out: Activity
HT-29 = assay: Growth inhibition of human HT-29 cells assessed as cell growth at 0.01 uM incubated for 48 hrs by sulforhodamine B assay relative to control; type: functional; conditions: HT-29, 48 h, read-out: Activity
HOP-62 [2] = assay: Growth inhibition of human HOP62 cells assessed as cell growth at 0.1 uM incubated for 48 hrs by sulforhodamine B assay relative to control; type: functional; conditions: HOP-62, 48 h, read-out: Activity
HCT-15 = assay: Growth inhibition of human HCT15 cells assessed as cell growth at 100 uM incubated for 48 hrs by sulforhodamine B assay relative to control; type: functional; conditions: HCT-15, 48 h, read-out: Activity
T47D [3] = assay: Growth inhibition of human T47D cells incubated for 48 hrs by sulforhodamine B assay; type: functional, cell-based
M14 [4] = assay: Growth inhibition of human M14 cells assessed as cell growth at 0.01 uM incubated for 48 hrs by sulforhodamine B assay relative to control; type: functional; conditions: M14, 48 h, read-out: Activity
U-251 = assay: Growth inhibition of human U251 cells assessed as cell growth at 100 uM incubated for 48 hrs by sulforhodamine B assay relative to control; type: functional; conditions: U-251, 48 h, read-out: Activity
OVCAR-8 = assay: Growth inhibition of human OVCAR8 cells assessed as cell growth at 0.01 uM incubated for 48 hrs by sulforhodamine B assay relative to control; type: functional; conditions: OVCAR-8, 48 h, read-out: Activity
K562 = assay: Growth inhibition of human K562 cells incubated for 48 hrs by sulforhodamine B assay; type: functional, cell-based; conditions: K562, 48 h
A549 = assay: Growth inhibition of human A549/ATCC cells assessed as cell growth at 0.01 uM incubated for 48 hrs by sulforhodamine B assay relative to control; type: functional; conditions: A549, 48 h, read-out: Activity
IGROV-1 = assay: Growth inhibition of human IGROV1 cells assessed as cell growth at 0.01 uM incubated for 48 hrs by sulforhodamine B assay relative to control; type: functional; conditions: IGROV-1, 48 h, read-out: Activity
PC-3 = assay: Growth inhibition of human PC3 cells assessed as cell growth at 1 uM incubated for 48 hrs by sulforhodamine B assay relative to control; type: functional; conditions: PC-3, 48 h, read-out: Activity
M14 [5] = assay: Growth inhibition of human M14 cells assessed as cell growth at 100 uM incubated for 48 hrs by sulforhodamine B assay relative to control; type: functional; conditions: M14, 48 h, read-out: Activity
SK-MEL-5 = assay: Growth inhibition of human SK-MEL-5 cells incubated for 48 hrs by sulforhodamine B assay; type: functional, cell-based; conditions: SK-MEL-5, 48 h
KM12 = assay: Growth inhibition of human KM12 cells assessed as cell growth at 1 uM incubated for 48 hrs by sulforhodamine B assay relative to control; type: functional; conditions: KM12, 48 h, read-out: Activity
ACHN = assay: Growth inhibition of human ACHN cells assessed as cell growth at 0.1 uM incubated for 48 hrs by sulforhodamine B assay relative to control; type: functional; conditions: read-out: Activity
SK-MEL-2 = assay: Growth inhibition of human SK-MEL-2 cells assessed as cell growth at 1 uM incubated for 48 hrs by sulforhodamine B assay relative to control; type: functional; conditions: SK-MEL-2, 48 h, read-out: Activity
OVCAR-4 [6] = assay: Growth inhibition of human OVCAR4 cells incubated for 48 hrs by sulforhodamine B assay; type: functional, cell-based; conditions: OVCAR-4, 48 h
RPMI-8226 = assay: Growth inhibition of human RPMI8226 cells assessed as cell growth at 0.01 uM incubated for 48 hrs by sulforhodamine B assay relative to control; type: functional; conditions: RPMI-8226, 48 h, read-out: Activity
T47D [7] = assay: Growth inhibition of human T47D cells assessed as cell growth at 0.01 uM incubated for 48 hrs by sulforhodamine B assay relative to control; type: functional; conditions: read-out: Activity
NCI-H460 = assay: Growth inhibition of human NCI-H460 cells assessed as cell growth at 100 uM incubated for 48 hrs by sulforhodamine B assay relative to control; type: functional; conditions: NCI-H460, 48 h, read-out: Activity
MOLT-4 = assay: Growth inhibition of human MOLT4 cells assessed as cell growth at 100 uM incubated for 48 hrs by sulforhodamine B assay relative to control; type: functional; conditions: MOLT-4, 48 h, read-out: Activity
OVCAR-4 [8] = assay: Growth inhibition of human OVCAR4 cells assessed as cell growth at 1 uM incubated for 48 hrs by sulforhodamine B assay relative to control; type: functional; conditions: OVCAR-4, 48 h, read-out: Activity
SW-620 = assay: Growth inhibition of human SW620 cells assessed as cell growth at 0.01 uM incubated for 48 hrs by sulforhodamine B assay relative to control; type: functional; conditions: SW-620, 48 h, read-out: Activity
NCI-H23 [9] = assay: Growth inhibition of human NCI-H23 cells assessed as cell growth at 0.1 uM incubated for 48 hrs by sulforhodamine B assay relative to control; type: functional; conditions: NCI-H23, 48 h, read-out: Activity
NCI-H23 [10] = assay: Growth inhibition of human NCI-H23 cells assessed as cell growth at 100 uM incubated for 48 hrs by sulforhodamine B assay relative to control; type: functional; conditions: NCI-H23, 48 h, read-out: Activity
BT-549 = assay: Growth inhibition of human BT549 cells assessed as cell growth at 0.1 uM incubated for 48 hrs by sulforhodamine B assay relative to control; type: functional; conditions: BT-549, 48 h, read-out: Activity
M14 [11] = assay: Growth inhibition of human M14 cells assessed as cell growth at 0.1 uM incubated for 48 hrs by sulforhodamine B assay relative to control; type: functional; conditions: M14, 48 h, read-out: Activity
UACC-62 = assay: Growth inhibition of human UACC62 cells assessed as cell growth at 0.01 uM incubated for 48 hrs by sulforhodamine B assay relative to control; type: functional; conditions: UACC-62, 48 h, read-out: Activity
SF-295 = assay: Growth inhibition of human SF295 cells assessed as cell growth at 0.1 uM incubated for 48 hrs by sulforhodamine B assay relative to control; type: functional; conditions: SF-295, 48 h, read-out: Activity
[12] = read-out: LC50 (the source's name)
[13] = read-out: pLC50 (the source's name) (converted)

## COc1cc(Cl)cc(-c2nn(-c3cccc(NC(=O)c4cccc(C(F)(F)F)c4)c3)cc2-c2ccncc2)c1
786-0
  growth at 100 µM: 44%
HOP-62 [1]
  growth at 1 µM: 101%
HT-29
  growth at 0.01 µM: 90%
HOP-62 [2]
  growth at 0.1 µM: 101%
HCT-15
  growth at 100 µM: 28%
T47D [3]; read-out: GI50
  GI50: 4.59 µM
T47D [3]; [12]
  CC50: > 100 µM
T47D [3]; read-out: TGI
  TGI: > 100 µM
T47D [3]; read-out: pGI50 (converted)
  GI50: 4.68 µM
T47D [3]; [13]
  CC50: > 100 µM
T47D [3]; read-out: pTGI (converted)
  TGI: > 100 µM
M14 [4]
  growth at 0.01 µM: 101%
U-251
  growth at 100 µM: 41%
OVCAR-8
  growth at 0.01 µM: 103%
K562; read-out: GI50
  GI50: 4.59 µM
K562; read-out: LC50
  LC50: > 100 µM
K562; read-out: TGI
  TGI: > 100 µM
K562; read-out: pGI50 (converted)
  GI50: 4.68 µM
K562; read-out: pLC50 (converted)
  LC50: > 100 µM
K562; read-out: pTGI (converted)
  TGI: > 100 µM
A549
  growth at 0.01 µM: 98%
IGROV-1
  growth at 0.01 µM: 94%
PC-3
  growth at 1 µM: 73%
M14 [5]
  growth at 100 µM: 27%
SK-MEL-5; read-out: GI50
  GI50: 5.43 µM
SK-MEL-5; [12]
  CC50: > 100 µM
SK-MEL-5; read-out: TGI
  TGI: > 100 µM
SK-MEL-5; read-out: pGI50 (converted)
  GI50: 5.37 µM
SK-MEL-5; [13]
  CC50: > 100 µM
SK-MEL-5; read-out: pTGI (converted)
  TGI: > 100 µM
KM12
  growth at 1 µM: 56%
ACHN
  growth at 0.1 µM: 98%
SK-MEL-2
  growth at 1 µM: 56%
OVCAR-4 [6]; read-out: GI50
  GI50: > 100 µM
OVCAR-4 [6]; [12]
  CC50: > 100 µM
OVCAR-4 [6]; read-out: TGI
  TGI: > 100 µM
OVCAR-4 [6]; read-out: pGI50 (converted)
  GI50: > 100 µM
OVCAR-4 [6]; [13]
  CC50: > 100 µM
OVCAR-4 [6]; read-out: pTGI (converted)
  TGI: > 100 µM
RPMI-8226
  growth at 0.01 µM: 101%
T47D [7]
  growth at 0.01 µM: 99%
NCI-H460
  growth at 100 µM: 30%
MOLT-4
  growth at 100 µM: 27%
OVCAR-4 [8]
  growth at 1 µM: 97%
SW-620
  growth at 0.01 µM: 101%
NCI-H23 [9]
  growth at 0.1 µM: 97%
NCI-H23 [10]
  growth at 100 µM: 27%
BT-549
  growth at 0.1 µM: 94%
M14 [11]
  growth at 0.1 µM: 93%
UACC-62
  growth at 0.01 µM: 98%
SF-295
  growth at 0.1 µM: 90%

## O=C(Nc1cccc(-n2cc(-c3ccncc3)c(-c3cc(O)cc(Cl)c3)n2)c1)c1cc(C(F)(F)F)cc(C(F)(F)F)c1
786-0
  growth at 100 µM: -28%
HOP-62 [1]
  growth at 1 µM: 100%
HT-29
  growth at 0.01 µM: 96%
HOP-62 [2]
  growth at 0.1 µM: 100%
HCT-15
  growth at 100 µM: -47%
T47D [3]; read-out: GI50
  GI50: 2.99 µM
T47D [3]; [12]
  CC50: > 100 µM
T47D [3]; read-out: TGI
  TGI: 94.6 µM
T47D [3]; read-out: pGI50 (converted)
  GI50: 3.02 µM
T47D [3]; [13]
  CC50: > 100 µM
T47D [3]; read-out: pTGI (converted)
  TGI: 95.5 µM
M14 [4]
  growth at 0.01 µM: 100%
U-251
  growth at 100 µM: -28%
OVCAR-8
  growth at 0.01 µM: 98%
K562; read-out: GI50
  GI50: 3.24 µM
K562; read-out: LC50
  LC50: > 100 µM
K562; read-out: TGI
  TGI: > 100 µM
K562; read-out: pGI50 (converted)
  GI50: 3.24 µM
K562; read-out: pLC50 (converted)
  LC50: > 100 µM
K562; read-out: pTGI (converted)
  TGI: > 100 µM
A549
  growth at 0.01 µM: 95%
IGROV-1
  growth at 0.01 µM: 100%
PC-3
  growth at 1 µM: 78%
M14 [5]
  growth at 100 µM: 5%
SK-MEL-5; read-out: GI50
  GI50: 2.51 µM
SK-MEL-5; [12]
  CC50: > 100 µM
SK-MEL-5; read-out: TGI
  TGI: 86.7 µM
SK-MEL-5; read-out: pGI50 (converted)
  GI50: 2.63 µM
SK-MEL-5; [13]
  CC50: > 100 µM
SK-MEL-5; read-out: pTGI (converted)
  TGI: 8.91 µM
KM12
  growth at 1 µM: 79%
ACHN
  growth at 0.1 µM: 98%
SK-MEL-2
  growth at 1 µM: 106%
OVCAR-4 [6]; read-out: GI50
  GI50: 8.53 µM
OVCAR-4 [6]; [12]
  CC50: > 100 µM
OVCAR-4 [6]; read-out: TGI
  TGI: > 100 µM
OVCAR-4 [6]; read-out: pGI50 (converted)
  GI50: 8.51 µM
OVCAR-4 [6]; [13]
  CC50: > 100 µM
OVCAR-4 [6]; read-out: pTGI (converted)
  TGI: > 100 µM
RPMI-8226
  growth at 0.01 µM: 105%
T47D [7]
  growth at 0.01 µM: 102%
NCI-H460
  growth at 100 µM: 1%
MOLT-4
  growth at 100 µM: 3%
OVCAR-4 [8]
  growth at 1 µM: 101%
SW-620
  growth at 0.01 µM: 99%
NCI-H23 [9]
  growth at 0.1 µM: 95%
NCI-H23 [10]
  growth at 100 µM: -10%
BT-549
  growth at 0.1 µM: 103%
M14 [11]
  growth at 0.1 µM: 93%
UACC-62
  growth at 0.01 µM: 90%
SF-295
  growth at 0.1 µM: 89%
